{"source": "patent US9975897B2", "about": "“Pyrazolopyrimidine derivatives useful as inhibitors of Bruton's tyrosine kinase” (Loxo Oncology, Inc., priority 2014, dated 2018)", "key": {"TMD8 human DLBCL cells": {"tested_on": "TMD8 human DLBCL cells", "assay": "TMD8 growth assay", "assay_type": "cell-based", "conditions": "72 hours, Resazurin, Table 3 categories", "method": "Compounds were assayed for effects on the growth of TMD8 human DLBCL cells that are dependent on NFκB signalling. TMD8 cells were grown in suspension in T225 flasks, centrifuged and re-suspended in 2.5% FBS containing media. Cells were then plated at 1.0×10^4 cells per well in 96-well plates in varying concentrations of compound and incubated for 72 hours at 37° C. An additional plate of cells to be used as the Day 0 read was seeded without compound addition, Resazurin was added to each well, incubated for 5 h and the fluorescence measured at 590 nm. After 72 h of compound treatment, Resazurin was added to each well of the compound treated plates, incubated for 5 hours and the fluorescence measured at 590 nm. The IC50 was then calculated but subtracting the average Day 0 value from each well value from the treated plates, each treatment was then calculated as a percentage of the DMSO control and the percentages plotted against the inhibitor concentration to estimate the IC50 from log [Inhibitor] vs response using the Variable Slope model in Graphpad prism from Graphpad software (San Diego, Calif.)."}, "Recombinant BTK kinase": {"target": "T1, Recombinant BTK kinase (Homo sapiens, UniProt Q06187)", "T1 construct": "purchased Invitrogen", "T1 sequence (Q06187 whole entry)": "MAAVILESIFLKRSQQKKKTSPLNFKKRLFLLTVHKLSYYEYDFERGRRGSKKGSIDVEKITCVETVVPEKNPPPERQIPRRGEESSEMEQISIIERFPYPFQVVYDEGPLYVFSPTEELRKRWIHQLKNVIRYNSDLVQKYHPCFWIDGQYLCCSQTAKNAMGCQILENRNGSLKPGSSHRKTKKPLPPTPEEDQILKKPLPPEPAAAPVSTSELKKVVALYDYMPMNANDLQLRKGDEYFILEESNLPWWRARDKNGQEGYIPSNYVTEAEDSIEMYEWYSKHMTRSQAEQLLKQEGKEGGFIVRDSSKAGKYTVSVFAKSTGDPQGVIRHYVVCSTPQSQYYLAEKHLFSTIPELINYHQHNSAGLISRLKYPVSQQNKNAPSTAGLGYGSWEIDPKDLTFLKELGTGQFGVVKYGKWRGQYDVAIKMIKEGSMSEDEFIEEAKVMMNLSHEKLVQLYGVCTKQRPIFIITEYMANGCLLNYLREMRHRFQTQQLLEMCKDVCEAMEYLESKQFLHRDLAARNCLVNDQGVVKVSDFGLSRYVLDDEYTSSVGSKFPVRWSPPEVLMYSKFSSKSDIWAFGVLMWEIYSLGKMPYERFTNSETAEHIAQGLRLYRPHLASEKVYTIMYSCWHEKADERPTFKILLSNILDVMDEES", "assay": "BTK binding affinity (TR-FRET)", "method": "BTK binding affinity of each compound tested was determined using a time-resolved fluorescence resonance energy transfer (TR-FRET) methodology. 2.5 nM Recombinant BTK kinase, varying concentrations of inhibitor, 2 nM LanthaScreen™ Eu anti-His Antibody and 15 nM Kinase Tracer 236 was incubated in 1× LanthaScreen™ Kinase Buffer A for five hours. Recombinant BTK kinase and all LanthaScreen™ components were purchased from Invitrogen. Measurements were performed in a reaction volume of 30 μL using half-area 96-well assay plates. The TR-FRET signal was read on a plate reader with an excitation wavelength of 340 nm and detection wavelengths of 615 and 665 nm. Binding affinity was determined for each compound by measuring TR-FRET signal at various concentrations of compound and plotting the relative fluorescence units against the inhibitor concentration to estimate the IC50 from log [Inhibitor] vs response using the Variable Slope model in Graphpad prism from Graphpad software (SanDiego, Calif.)."}, "Recombinant EGFR": {"target": "T2, Recombinant EGFR (Homo sapiens, UniProt P00533)", "T2 construct": "purchased Invitrogen", "T2 sequence (P00533 25-1210)": "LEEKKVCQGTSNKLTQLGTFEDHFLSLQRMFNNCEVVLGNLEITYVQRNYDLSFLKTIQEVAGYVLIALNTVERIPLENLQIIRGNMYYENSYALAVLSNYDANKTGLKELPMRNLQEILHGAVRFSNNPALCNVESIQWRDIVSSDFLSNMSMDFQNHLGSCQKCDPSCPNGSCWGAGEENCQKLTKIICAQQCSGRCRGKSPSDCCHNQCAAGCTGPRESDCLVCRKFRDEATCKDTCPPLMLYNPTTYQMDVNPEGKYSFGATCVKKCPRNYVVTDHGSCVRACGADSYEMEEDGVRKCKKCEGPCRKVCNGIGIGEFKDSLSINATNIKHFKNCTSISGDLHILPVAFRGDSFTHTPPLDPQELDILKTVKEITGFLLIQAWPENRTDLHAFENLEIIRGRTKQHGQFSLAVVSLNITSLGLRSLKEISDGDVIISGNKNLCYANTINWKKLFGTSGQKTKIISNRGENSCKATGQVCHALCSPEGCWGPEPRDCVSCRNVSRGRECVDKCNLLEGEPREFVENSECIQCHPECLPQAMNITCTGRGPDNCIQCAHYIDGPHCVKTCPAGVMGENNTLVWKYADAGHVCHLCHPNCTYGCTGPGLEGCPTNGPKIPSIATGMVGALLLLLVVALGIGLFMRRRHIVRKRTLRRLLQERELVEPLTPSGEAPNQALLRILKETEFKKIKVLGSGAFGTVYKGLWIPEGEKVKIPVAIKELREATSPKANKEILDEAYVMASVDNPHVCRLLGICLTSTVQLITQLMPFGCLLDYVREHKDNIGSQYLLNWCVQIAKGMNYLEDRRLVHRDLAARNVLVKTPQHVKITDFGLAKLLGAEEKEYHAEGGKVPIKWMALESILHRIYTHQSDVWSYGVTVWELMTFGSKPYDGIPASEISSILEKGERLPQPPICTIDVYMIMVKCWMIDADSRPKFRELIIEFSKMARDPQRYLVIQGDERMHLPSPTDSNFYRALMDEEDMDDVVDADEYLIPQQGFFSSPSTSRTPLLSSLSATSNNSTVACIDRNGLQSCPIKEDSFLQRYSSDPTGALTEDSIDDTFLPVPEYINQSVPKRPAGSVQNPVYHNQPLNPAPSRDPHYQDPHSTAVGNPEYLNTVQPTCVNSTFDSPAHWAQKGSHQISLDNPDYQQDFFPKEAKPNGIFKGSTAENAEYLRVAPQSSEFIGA", "assay": "EGFR binding affinity (TR-FRET)", "conditions": "2.5 nM recombinant EGFR, five hours incubation, Table 3 categories", "method": "EGFR binding affinity was determined using a time-resolved fluorescence resonance energy transfer (TR-FRET) methodology. 2.5 nM Recombinant EGFR, varying concentrations of inhibitor, 2 nM LanthaScreen™ Eu anti-GST Antibody and 3 nM Kinase Tracer 199 was incubated in 1× LanthaScreen™ Kinase Buffer A for five hours. Recombinant EGFR and all LanthaScreen™ components were purchased from Invitrogen. Measurements were performed in a reaction volume of 30 μL using half-area 96-well assay plates. The TR-FRET signal was read on a plate reader with an excitation wavelength of 340 nm and detection wavelengths of 615 and 665 nm. Binding affinity was determined for each compound by measuring TR-FRET signal at various concentrations of compound and plotting the relative fluorescence units against the inhibitor concentration to estimate the IC50 from log [Inhibitor] vs response using the Variable Slope model in Graphpad prism from Graphpad software (SanDiego, Calif.)."}, "[1]": {"conditions": "rat; cited from earlier work"}, "[2]": {"conditions": "2.5 nM recombinant BTK, five hours incubation, Table 3 categories"}}, "data": [{"smiles": "C=CC(=O)N1CCC[C@@H](n2nc(-c3ccc(CNC(=O)c4ccc(C)cc4OC)cc3)c3c(N)ncnc32)C1", "note": "[ID No. 15, N-[[4-[4-amino-1-[(3R)-1-prop-2-enoyl-3-piperidyl]pyrazolo[3,4-d]pyrimidin-3-yl]phenyl]methyl]-2-methoxy-4-methyl-benzamide]", "values": [{"measurement": "IC50", "setting": "TMD8 human DLBCL cells", "result": "< 5", "unit": "nM"}, {"measurement": "IC50", "setting": "Recombinant BTK kinase; [2]", "result": "0.5 to 1", "unit": "nM"}, {"measurement": "IC50", "setting": "Recombinant BTK kinase; Table 4 numeric values", "result": 0.7, "unit": "nM"}, {"measurement": "IC50", "setting": "Recombinant EGFR", "result": "25 to 80", "unit": "nM"}]}, {"smiles": "C=CC(=O)N1CCC[C@@H](n2nc(-c3ccc(CNC(=O)c4ccc(C(F)(F)F)cc4F)cc3)c3c(N)ncnc32)C1", "note": "[ID No. 36, N-[[4-[4-amino-1-[(3R)-1-prop-2-enoyl-3-piperidyl]pyrazolo[3,4-d]pyrimidin-3-yl]phenyl]methyl]-2-fluoro-4-(trifluoromethyl)benzamide]", "values": [{"measurement": "IC50", "setting": "TMD8 human DLBCL cells", "result": "25 to 300", "unit": "nM"}, {"measurement": "IC50", "setting": "Recombinant BTK kinase; [2]", "result": "1 to 10", "unit": "nM"}, {"measurement": "IC50", "setting": "Recombinant EGFR", "result": "< 25", "unit": "nM"}]}, {"smiles": "C=CC(=O)N1CCC[C@@H](n2nc(-c3ccc(Oc4ccccc4)cc3)c3c(N)ncnc32)C1", "note": "[Ibrutinib]", "values": [{"measurement": "bioavailability", "setting": "[1]", "result": "poor"}, {"measurement": "estimated fraction absorbed", "setting": "[1]", "result": "low"}]}]}
